Data taken from publication PMC10410440, “Preclinical PK investigation of a novel IDO1/TDO dual inhibitor—SHR9146 in mouse plasma and tissues by LC-MS/MS” (Frontiers in Oncology, 2023).
Where two headings read alike, the source gives them in different places.

Assay: Plasma pharmacokinetics of SHR9146 in mice (LC-MS/MS, non-compartmental analysis)
Format: in vivo, ICR mice
Settings: for MRT inf: read-out: MRT0-∞
Method: ICR mice with body weight 16–26 g were supplied by Shanghai Lingchang Biotechnology Co., Ltd. (animal breeding license number SCXK (Shanghai) 2013-0018) and housed at Shanghai Institute of Materia Medica, Chinese Academy of Sciences [animal use license number SYXK (Shanghai) 2015-0027]. The mice used in this study were fasted overnight for 12 h but had free access to water. Food was supplied 4 h post-dose. All experiments in this study were conducted in accordance with the Guidelines for the Care and Use of Laboratory Animals of Shanghai Institute of Materia Medica, Chinese Academy of Sciences.
A total of 30 mice were randomly assigned into five groups with equal numbers, males and females. One group was intravenously administrated with 5 mg/kg SHR9146 dissolved in […] plus 95% saline (adjusted pH to 4.0) under sterile conditions. The remaining four groups were administered respectively with a single dose of 20 , 40, or 80 mg/kg or multiple doses of 20 mg/kg twice daily for 7 days, by oral gavage of SHR9146 dissolved in 0.5% CMC-Na. Blood samples were obtained from the fossa orbitalis vein at 15 and 30 min and 1.0, 2.0, 4.0, 6.0, 8.0, 10.0, and 24.0 h after oral gavage administration. An additional 5-min time point was included for iv injection, as well as the pre-drug administration time points on the fifth, sixth, and seventh days in the multiple-dose group. The blood samples were collected in EDTA K2 anticoagulant blood collection tubes and centrifuged at 1,000 rpm for 5 min at 4°C. The supernatant plasma samples were thus produced.
Briefly as follows, an aliquot of 25-μL plasma or tissue homogenate was spiked with 100 μL of internal standard solution (1 μg/mL for plasma, 0.2 μg/mL for tissue homogenate) and 300 μL of methanol added and vortex mixed for 60 s. The mixture was then centrifuged at 14,000 rpm at 4°C for 5.0 min, and the supernatant was diluted with methanol–water (4:1, v/v) in a ratio of 1:9 for the plasma or 1:1 for the tissue homogenate, and 5 μL of the resulting solution was injected for the LC-MS/MS analysis.
The pharmacokinetic parameters of SHR9146 in mouse plasma were estimated by Phoenix 1.4 software using a non-compartmental model.
The mean concentration–time curves of SHR9146 in mouse plasma after a single oral gavage dose of 20, 40, or 80 mg/kg, or a single intravenous dose of 5 mg/kg, or the 7th-day steady state after twice-daily multiple oral doses of 20 mg/kg are shown in Figure 5 (Table S6).

[1] = 20 mg/kg i.g. single dose, all mice (Totol, 3 male + 3 female), plasma
[2] = 20 mg/kg i.g. single dose, female mice, plasma
[3] = 20 mg/kg i.g. single dose, male mice, plasma
[4] = 20 mg/kg oral twice daily for 7 days vs single 20 mg/kg oral dose, mice
[5] = 40 mg/kg i.g. single dose, male mice, plasma
[6] = 80 mg/kg i.g. single dose, all mice (Totol, 3 male + 3 female), plasma
[7] = 80 mg/kg i.g. single dose, female mice, plasma
[8] = 80 mg/kg i.g. single dose, male mice, plasma
[9] = ICR, mouse, iv, 5 mg/kg i.v. single dose, female mice, plasma
[10] = ICR, mouse, iv, 5 mg/kg i.v. single dose, male mice, plasma
[11] = both sexes, ICR, mouse, iv, 5 mg/kg i.v. single dose, all mice (Totol, 3 male + 3 female), plasma
[12] = both sexes, ICR, mouse, plasma, intravenous, 5 mg/kg, 5 mg/kg i.v., read-out: plasma drug concentration, individual mice #1-#6
[13] = both sexes, ICR, mouse, plasma, intravenous, 5 mg/kg, 5 mg/kg i.v., read-out: plasma drug concentration, mean (n=6)
[14] = both sexes, ICR, mouse, plasma, oral, 20 mg/kg, 20 mg/kg i.g. bid, 7 days, 7th day, read-out: plasma drug concentration, individual mice #1-#6
[15] = both sexes, ICR, mouse, plasma, oral, 20 mg/kg, 20 mg/kg i.g. bid, 7 days, 7th day, read-out: plasma drug concentration, mean (n=6)
[16] = both sexes, ICR, mouse, plasma, oral, 20 mg/kg, 20 mg/kg i.g. single, read-out: plasma drug concentration, mean (n=6)
[17] = both sexes, ICR, mouse, plasma, oral, 40 mg/kg, 40 mg/kg i.g. single, read-out: plasma drug concentration, mean (n=6)

With `OCCn1cc(-c2ccc(N3CCC([C@H]4c5c(F)cccc5-c5cncn54)CC3)cc2)cn1` [SHR9146] the “plasma drug concentration, individual mice #1-#6” value (“plasma drug concentration” below) (5 mg/kg i.v., 4 h) was “BLQ”, the “plasma drug concentration” value (5 mg/kg i.v., 6 h) was “BLQ” and the “plasma drug concentration” value (5 mg/kg i.v., 8 h) was “BLQ”. The “plasma drug concentration” value (5 mg/kg i.v., 10 h) was “BLQ”, the “plasma drug concentration” value (5 mg/kg i.v., 24 h) was “BLQ” and the “CL as share of the blood flow of mouse liver” value (5 mg/kg i.v., liver blood flow around 90 mL/min/kg (ref 23)) was 13.3%. The “Vd as share of the total body fluid of mice” value (5 mg/kg i.v., total body fluid around 0.725 L/kg (ref 23)) was 91.9%, the CL (20 mg/kg i.g. bid, 7 days (7th-day steady state), all mice (Totol, 3 male + 3 female), plasma) was 13.7 mL/min/kg and the CL (20 mg/kg i.g. bid, 7 days (7th-day steady state), female mice, plasma) was 13.7 mL/min/kg. For the same compound, the CL (20 mg/kg i.g. bid, 7 days (7th-day steady state), male mice, plasma) was 13.6 mL/min/kg, the “plasma drug concentration” value (20 mg/kg i.g. bid, 7 days, 7th day, 0 h) was “BLQ” and the “plasma drug concentration” value (20 mg/kg i.g. bid, 7 days, 7th day, 8 h) was “BLQ”. For the same compound, the “plasma drug concentration” value (20 mg/kg i.g. bid, 7 days, 7th day, 10 h) was “BLQ”, the “plasma drug concentration” value (20 mg/kg i.g. bid, 7 days, 7th day, 24 h) was “BLQ” and the “plasma drug concentration” value (20 mg/kg i.g. bid, 7 days, Fifth day, pre-drug administration) was “BLQ”. The “plasma drug concentration” value (20 mg/kg i.g. bid, 7 days, Sixth day, pre-drug administration) was “BLQ”, the “plasma drug concentration” value (20 mg/kg i.g. single (dose cell empty, taken from the line above), 24 h) was “BLQ” and the CL [1] was 20.5 mL/min/kg. For the same compound, the Vd [1] was 2.02 L/kg, the CL [2] was 18.6 mL/min/kg and the Vd [2] was 1.88 L/kg. For the same compound, the CL [3] was 22.8 mL/min/kg, the Vd [3] was 2.189 L/kg and the “plasma drug concentration” value (20 mg/kg i.g. single, 4 h) was “BLQ”. For the same compound, the “plasma drug concentration” value (20 mg/kg i.g. single, 6 h) was “BLQ”, the “plasma drug concentration” value (20 mg/kg i.g. single, 8 h) was “BLQ” and the “plasma drug concentration” value (20 mg/kg i.g. single, 10 h) was “BLQ”. The “steady-state AUC relative to single oral dose” value [4] was 1.55 fold, the “steady-state Cmax relative to single oral dose” value [4] was 1.08 fold and the “accumulation after multiple oral doses” value (20 mg/kg oral twice daily for 7 days, mouse plasma) was “no significant accumulation”. For the same compound, the CL [5] was 20.0 mL/min/kg, the Vd [5] was 3.07 L/kg and the “plasma drug concentration” value (40 mg/kg i.g. single, 6 h) was “BLQ”. For the same compound, the “plasma drug concentration” value (40 mg/kg i.g. single, 8 h) was “BLQ”, the “plasma drug concentration” value (40 mg/kg i.g. single, 10 h) was “BLQ” and the “plasma drug concentration” value (40 mg/kg i.g. single, 24 h) was “BLQ”. It also gave a CL [6] of 18.8 mL/min/kg, a Vd [6] of 5.19 L/kg and a CL [7] of 20.2 mL/min/kg. For the same compound, the Vd [7] was 4.00 L/kg, the CL [8] was 17.6 mL/min/kg and the Vd [8] was 6.22 L/kg. For the same compound, the “plasma drug concentration” value (80 mg/kg i.g. single, 6 h) was “BLQ”, the “plasma drug concentration” value (80 mg/kg i.g. single, 8 h) was “BLQ” and the “plasma drug concentration” value (80 mg/kg i.g. single, 24 h) was “BLQ”. It also gave a clearance [9] of 12.1 mL/min/kg, an MRT inf [9] of 0.882 h and a Vd (ICR, mouse, iv, 5 mg/kg i.v. single dose, female mice, plasma, read-out: Vd) of 0.638 L/kg. The clearance [10] was 12 mL/min/kg, the MRT inf [10] was 0.965 h and the Vd (ICR, mouse, iv, 5 mg/kg i.v. single dose, male mice, plasma, read-out: Vd) was 0.694 L/kg. For the same compound, the concentration at 8 h (ICR, mouse, plasma, intravenous, 5 mg/kg, 5 mg/kg i.v., 8 h, read-out: plasma drug concentration, individual mice #1-#6) was 149 ng/mL, the MRT inf (ICR, mouse, po, 20 mg/kg i.g. single dose, female mice, plasma) was 1.68 h and the MRT inf (ICR, mouse, po, 20 mg/kg i.g. single dose, male mice, plasma) was 1.6 h. For the same compound, the MRT inf (ICR, mouse, po, 40 mg/kg i.g. single dose, male mice, plasma) was 2.56 h, the MRT inf (ICR, mouse, po, 80 mg/kg i.g. single dose, female mice, plasma) was 3.29 h and the MRT inf (ICR, mouse, po, 80 mg/kg i.g. single dose, male mice, plasma) was 5.9 h. The clearance [11] was 12 mL/min/kg, the MRT inf [11] was 0.923 h and the Vd (both sexes, ICR, mouse, iv, 5 mg/kg i.v. single dose, all mice (Totol, 3 male + 3 female), plasma, read-out: Vd) was 0.666 L/kg. The concentration at 0.083 h [12] was 7880 ng/mL, the concentration at 0.083 h [13] was 6860 ng/mL and the concentration at 0.25 h [12] was 5210 ng/mL. The concentration at 0.25 h [13] was 5230 ng/mL, the concentration at 0.5 h [12] was 4530 ng/mL and the concentration at 0.5 h [13] was 3610 ng/mL. For the same compound, the concentration at 1 h [12] was 2450 ng/mL, the concentration at 1 h [13] was 2760 ng/mL and the concentration at 2 h [13] was 605 ng/mL. It also gave a concentration at 4 h (both sexes, ICR, mouse, plasma, intravenous, 5 mg/kg, 5 mg/kg i.v., 4 h, read-out: plasma drug concentration, mean (n=6)) of 126 ng/mL, an AUC(0-inf) (both sexes, ICR, mouse, plasma, iv, 5 mg/kg, 5 mg/kg i.v. single dose, all mice (Totol, 3 male + 3 female), plasma) of 6930 ng·h/mL and an AUC(0-t) (both sexes, ICR, mouse, plasma, iv, 5 mg/kg, 5 mg/kg i.v. single dose, all mice (Totol, 3 male + 3 female), plasma, read-out: AUC0-t) of 6760 ng·h/mL. It also gave a half-life (both sexes, ICR, mouse, plasma, iv, 5 mg/kg, 5 mg/kg i.v. single dose, all mice (Totol, 3 male + 3 female), plasma, read-out: t1/2 (converted)) of 0.713 h, a half-life (both sexes, ICR, mouse, plasma, mice, all doses and routes except the high oral dose (80 mg/kg), read-out: mean terminal half-life in plasma, range) of 0.699 to 1.66 h and a concentration at 0.25 h [14] of 4300 ng/mL. It also gave a concentration at 0.25 h [15] of 5710 ng/mL, a concentration at 0.5 h [15] of 8020 ng/mL and a concentration at 1 h [14] of 9900 ng/mL. For the same compound, the concentration at 1 h [15] was 9430 ng/mL, the concentration at 2 h [15] was 6170 ng/mL and the concentration at 3 h [15] was 3170 ng/mL. It also gave a concentration at 4 h (both sexes, ICR, mouse, plasma, oral, 20 mg/kg, 20 mg/kg i.g. bid, 7 days, 7th day, 4 h, read-out: plasma drug concentration, mean (n=6)) of 1590 ng/mL, a concentration at 6 h (both sexes, ICR, mouse, plasma, oral, 20 mg/kg, 20 mg/kg i.g. bid, 7 days, 7th day, 6 h, read-out: plasma drug concentration, mean (n=6)) of 453 ng/mL and a concentration at 8 h (both sexes, ICR, mouse, plasma, oral, 20 mg/kg, 20 mg/kg i.g. bid, 7 days, 7th day, 8 h, read-out: plasma drug concentration, mean (n=6)) of 58 ng/mL. For the same compound, the concentration at 10 h (both sexes, ICR, mouse, plasma, oral, 20 mg/kg, 20 mg/kg i.g. bid, 7 days, 7th day, 10 h, read-out: plasma drug concentration, individual mice #1-#6) was 58 ng/mL, the concentration at 24 h (both sexes, ICR, mouse, plasma, oral, 20 mg/kg, 20 mg/kg i.g. bid, 7 days, 7th day, 24 h, read-out: plasma drug concentration, individual mice #1-#6) was 54 ng/mL and the concentration at 0.25 h [16] was 7500 ng/mL. It also gave a concentration at 0.5 h [16] of 8140 ng/mL, a concentration at 1 h [16] of 4620 ng/mL and a concentration at 2 h [16] of 3980 ng/mL. For the same compound, the concentration at 3 h [16] was 2950 ng/mL, the concentration at 4 h (both sexes, ICR, mouse, plasma, oral, 20 mg/kg, 20 mg/kg i.g. single, 4 h, read-out: plasma drug concentration, mean (n=6)) was 526 ng/mL and the concentration at 6 h (both sexes, ICR, mouse, plasma, oral, 20 mg/kg, 20 mg/kg i.g. single, 6 h, read-out: plasma drug concentration, individual mice #1-#6) was 242 ng/mL. The concentration at 8 h (both sexes, ICR, mouse, plasma, oral, 20 mg/kg, 20 mg/kg i.g. single, 8 h, read-out: plasma drug concentration, individual mice #1-#6) was 194 ng/mL, the concentration at 0.25 h [17] was 4830 ng/mL and the concentration at 0.5 h [17] was 5310 ng/mL.
